Laboratory results taken from patent US7419683B2, “Method of inhibiting side effects of pharmaceutical compositions containing amphiphilic vehicles or drug carrier molecules” (United States of America as Represented by the Secretary of …, priority 1998, dated 2008).

Assays:
SC5b-9 = experiment: In vitro complement activation in human serum, SC5b-9 ELISA; assay type: biochemical; conditions: for C activation (serum SC5b-9), result in words: human sera, Table 1
Procedure: Non-anticoagulated blood was drawn from healthy volunteers and from cancer patients according to protocols approved, as additions to existing protocols, by the Walter Reed Army Medical Center Human Use Committee, and by the University of Southern California (USC)/Norris Cancer Center Institutional Review Board and General Clinical Research Center. […] Blood was allowed to clot at room temperature and the serum was stored at −80° C. It was thawed and kept at 4° C. before incubation with the test agents.
To assess C activation in vitro we measured the drug-induced rise of two C split products, SC5b-9 and Bb, using ELISA kits from Quidel Corp. (San Diego, Calif.). SC5b-9 is the soluble, S-protein-bound form of the terminal complex, a sensitive measure of C5a formation through both the classical and the alternative pathways, while Bb is the proteolytically active fragment of factor B, a specific marker of C activation through the alternative pathway. The test agents were incubated with the serum in a shaking water bath (80 rpm cycle) for 30 to 60 min at 37° C. at an activator to serum volume ratio of 1:5 or 1:10. […] The reaction was stopped by adding 20 volume of the specimen diluent from the ELISA kits containing PBS, 0.05% Tween-20, protein stabilizers, and 0.01% Thimerosal.

[1] = system: liposome-induced pulmonary hypertension; experiment: Inhibition of liposome-induced pulmonary hypertension (PAP) in pigs; assay type: in vivo, pig
Procedure: FIG. 12. The effects of complement inhibitors and indomethacin on liposome-induced pulmonary hypertension. Panel A presents the standard liposome-induced changes in PAP before and at different times after the administration of the indicated inhibitors, each in a different animal. […] Inhibitors were injected in the jugular vein in 4-8 mL PBS, at the following doses: GS1, 1.6 mg/kg (squares), sCR1, 0.2 mg/kg (open circles) and 2 mg/kg (closed circles); indomethacin, 5 mg/kg (triangles).
Experiments were-performed in accordance with the guidelines of the Committee on Animal Care of the Uniformed Services University of the Health Sciences and with the Guide for the Care and the Use of Laboratory Animals (Department of Health and Human Services, Publication No. [NIH] 86-23). Female Yorkshire swine (32-48 kg) were sedated with i.m. ketamine and anesthetized with halothane by nose cone. The trachea was intubated and anesthesia was maintained with halothane (1%). […] Systemic vascular resistance (SVR) and pulmonary vascular resistance (PVR) were calculated from SAP, PAP, CO, CVP and LVEDP, using standard formulas (Fontana, J. L. et al., 1995, Anesth. Analg. 80, 219) Blood pressure values and leads II and V5 of the electrocardiogram (ECG) were obtained continually.

miniature pigs = conditions: previous study; cited from earlier work
[2] = system: LEH-induced complement activation; conditions: human serum, in vitro, cited from earlier work
[3] = system: Cremophor EL-induced complement activation; experiment: Inhibition of Cremophor EL-induced complement activation (SC5b-9) in human serum; assay type: biochemical; conditions: Cremophor EL 8.8 mg/ml, serum of a healthy subject
Procedure: FIG. 4. Inhibition of Cremophor EL-induced complement activation by soluble complement receptor type 1 (sCR1): dose activity relationship. […] Serum levels of SC5b-9 were measured by enzyme-linked immunoasorbent assay, as described. Bars=mean values with 95% confidence interval, obtained from triplicate wells. The rise of SC5b-9 relative to PBS was statistically significant at *, P=0.0006 and **, P=0.002 (Student's two-sample t test, two-tailed).
To assess C activation in vitro we measured the drug-induced rise of two C split products, SC5b-9 and Bb, using ELISA kits from Quidel Corp. (San Diego, Calif.). SC5b-9 is the soluble, S-protein-bound form of the terminal complex, a sensitive measure of C5a formation through both the classical and the alternative pathways, while Bb is the proteolytically active fragment of factor B, a specific marker of C activation through the alternative pathway. The test agents were incubated with the serum in a shaking water bath (80 rpm cycle) for 30 to 60 min at 37° C. at an activator to serum volume ratio of 1:5 or 1:10. Typically, 5 μl of drug (stock) was added to 45 μl of serum placed in Eppendorf tubes. The reaction was stopped by adding 20 volume of the specimen diluent from the ELISA kits containing PBS, 0.05% Tween-20, protein stabilizers, and 0.01% Thimerosal.

[4] = system: C-mediated harmful effects; conditions: in vitro; cited from earlier work
[5] = pigs; cited from earlier work

For `CC(=O)O[C@H]1C(=O)[C@@]2(C)[C@H]([C@H](OC(=O)c3ccccc3)[C@]3(O)C[C@H](OC(=O)[C@H](O)[C@@H](NC(=O)c4ccccc4)c4ccccc4)C(C)=C1C3(C)C)[C@]1(OC(C)=O)CO[C@@H]1C[C@@H]2O` [Paclitaxel, paclitaxel], the SC5b-9 (SC5b-9; paclitaxel 100 ug/mL, bar marked * in FIG. 2 (with 95% confidence interval)) was 67.4 (65.8-69) ug/ml.

For `CC(=O)O[C@@]12CO[C@@H]1C[C@H](O)[C@@]1(C)C(=O)[C@H](O)C3=C(C)[C@@H](OC(=O)[C@H](O)[C@@H](NC(=O)OC(C)(C)C)c4ccccc4)C[C@@](O)([C@@H](OC(=O)c4ccccc4)[C@H]21)C3(C)C` [docetaxel], the “C activation (serum SC5b-9), result in words” value (from here on “C activation”) (SC5b-9) was “caused C activation only when the drug (formulated in Tween-80) was added to human serum together with ethanol”, the SC5b-9 (SC5b-9; subject 1 (healthy donor), dose 100 μg/ml (H2O), 30 min 37° C.) was 1.8 µg/mL and the SC5b-9 (SC5b-9; subject 1 (healthy donor), dose 100 μg/ml with 0.8% ethanol, 30 min 37° C.) was 16.0 µg/mL. For the same compound, the SC5b-9 (SC5b-9; subject 2 (healthy donor), dose 100 μg/ml with 0.8% ethanol) was 28.6 µg/mL, the SC5b-9 (SC5b-9; subject 3 (healthy donor), dose 100 μg/ml (H2O)) was 0.2 µg/mL and the SC5b-9 (SC5b-9; subject 4 (cancer patient), dose 100 μg/ml with 0.8% ethanol) was 38.5 µg/mL.

In the case of `N.N.O=C([O-])C1(C(=O)[O-])CCC1.[Pt+2]` [carboplatin], the “C activation” value (SC5b-9) is reported as “did not cause C activation”, the SC5b-9 (SC5b-9; subject 2 (healthy donor), dose 100 μg/ml, no ethanol) is reported as 3.4 µg/mL and the SC5b-9 (SC5b-9; subject 4 (cancer patient), dose 100 μg/ml, no ethanol) is reported as 5.5 µg/mL.

In the case of `COc1ccc2c(c1)c(CC(=O)O)c(C)n2C(=O)c1ccc(Cl)cc1` [indomethacin], the “effect on pulmonary reaction to 5 mg liposome boluses” value ([1]; 5 mg/kg i.v., all tested pigs) is given as “completely suppressed” and the “rise of PVR after liposomes with indomethacin treatment” value (miniature pigs) is given as 20%.

For “sCR1: Recombinant soluble complement receptor type 1”, the “inhibition of PAP response to 5 mg liposome boluses” value ([1]; 0.2 and 2 mg/kg i.v. (in 2-2 pigs), maximal inhibition) is listed as 30-100%, the “dose providing complete suppression of SC5b-9 formation” value ([2]; LEH-induced) is listed as 20 µg/mL and the “doses significantly inhibiting LEH-induced complement activation” value [2] is listed as greater than 0.8 µg/mL. The “dose providing complete suppression of Cremophor EL/ethanol-induced increase of SC5b-9” value [3] was 1.8 µg/mL, the “doses significantly inhibiting Cremophor EL/ethanol-induced increase of SC5b-9” value [3] was greater than 0.6 µg/mL and the “concentration range of potent inhibition of C-mediated harmful effects” value [4] was 10 to 40 µg/mL. The “plasma clearance α-phase t1/2” value [5] was 8.3 min, the “plasma clearance β-phase t1/2” value [5] was 6.05 h and the “share of the drug clearing slowly” value [5] was 31%.

For `CCO` [ethanol], the “C activation” value (SC5b-9) was “did not cause significant elevation of serum SC5b-9”, the SC5b-9 (SC5b-9; subject 2 (healthy donor), dose 0.8% (final serum concentration)) was 3.2 µg/mL and the SC5b-9 (SC5b-9; subject 3 (healthy donor), dose 0.4% (final serum concentration)) was 0.5 µg/mL. It also gave an SC5b-9 (SC5b-9; subject 4 (cancer patient), dose 0.8% (final serum concentration)) of 6.6 µg/mL.
